According to patent publication EP1203770A1 (priority 1992, dated 1994):

Target: T1, HIV-1 protease (Human immunodeficiency virus type 1 group M subtype B, UniProt P04585)
T1 construct: The protease (or proteinase), consisting of only 99 amino acids, is among the smallest enzymes known
Assay: In vitro HIV protease inhibitory assay (HIV Protease FITC Assay)
Format: biochemical
Conditions: for inhibition at 0.123 µM / inhibition at 0.37 µM / inhibition at 1.1 µM / inhibition at 3.3 µM / inhibition at 10 µM / inhibition at 30 µM: read-out: HIV-1 Protease % Inhib; for Ki: read-out: HIV-1 FITC Ki
Summary of the method: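 Biotin/FITC-labelled peptide substrate cleaved by HIV-1 protease for 1 h at room temperature in the dark, in 0.1 M sodium acetate pH 5.5, 1.0 M NaCl, 0.05% NP-40. Uncleaved substrate captured on avidin beads and separated by filtration; fluorescence gave % inhibition.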

| SMILES | inhibition at 0.123 µM (HIV-1 Dose 0.123 uM) | inhibition at 0.37 µM (HIV-1 Dose 0.370 uM) | inhibition at 1.1 µM (HIV-1 Dose 1.100 uM) | inhibition at 3.3 µM (HIV-1 Dose 3.300 uM) | inhibition at 10 µM (HIV-1 Dose 10.000 uM) | inhibition at 30 µM (HIV-1 Dose 30.000 uM) | Ki | HIV-1 Protease % Inhib (HIV-1 Dose 0.123 uM) | HIV-1 Protease % Inhib (HIV-1 Dose 0.370 uM) | HIV-1 Protease % Inhib (HIV-1 Dose 1.100 uM) | HIV-1 Protease % Inhib (HIV-1 Dose 3.300 uM) | HIV-1 Protease % Inhib (HIV-1 Dose 10.000 uM) | HIV-1 Protease % Inhib (HIV-1 Dose 30.000 uM) |
| --- | --- | --- | --- | --- | --- | --- | --- | --- | --- | --- | --- | --- | --- |
| CCC(CCC1OCCCO1)c1cc(O)c(C(c2ccccc2)C2CC2)c(=O)o1 (stereo not shown) [Example 65, 3-(Cyclopropyl-phenyl-methyl)-6-(3-(1,3)dioxan-2-yl-1-ethyl-propyl)-4-hydroxy-pyran-2-one] | < 10% | 28% | 71.2% | 93.2% | 107% | 122% | 141 nM | – | – | – | – | – | – |
| CCC(CCCl)c1cc(O)c(C(c2ccccc2)C2CC2)c(=O)o1 (stereo not shown) [Example 66, 6-(3-Chloro-1-ethyl-propyl)-3-(cyclopropyl-phenyl-methyl)-4-hydroxy-pyran-2-one] | < 10% | 36% | 75.3% | 99.4% | 102% | 108% | 53 nM | – | – | – | – | – | – |
| CCC(CCOC1CCCCO1)c1cc(O)c(C(c2ccccc2)C2CC2)c(=O)o1 (stereo not shown) [Example 67] | – | – | – | – | – | – | 84 nM | <10% | 32.64% | 72.63% | 92.3% | 106.66% | 118.42% |
| CCC(Cc1ccncc1)c1cc(O)c(C(c2ccccc2)C2CC2)c(=O)o1 (stereo not shown) [Example 68, 3-(Cyclopropyl-phenyl-methyl)-4-hydroxy-6-(1-pyridin-4-ylmethyl-propyl)-pyran-2-one] | < 10% | 15.1% | 47.7% | 80.3% | 98.7% | 112% | 132 nM | – | – | – | – | – | – |
| CCC(CC(=O)N1CCOCC1)c1cc(O)c(C(c2ccccc2)C2CC2)c(=O)o1 (stereo not shown) [Example 69, 3-(Cyclopropyl-phenyl-methyl)-6-(1-ethyl-3-morpholin-4-yl-3-oxo-propyl)-4-hydroxy-pyran-2-one] | < 10% | < 10% | 13.9% | 42.1% | 75.2% | 98.5% | – | – | – | – | – | – | – |
| CCC(Cc1cccnc1)c1cc(O)c(C(c2ccccc2)C2CC2)c(=O)o1 (stereo not shown) [Example 70, 3-(Cyclopropyl-phenyl-methyl)-4-hydroxy-6-(1-pyridin-3-ylmethyl-propyl)-pyran-2-one] | < 10% | 38.3% | 67.3% | 88.9% | 92.8% | 98.6% | 64 nM | – | – | – | – | – | – |
| CCC(CCc1ccsc1)c1cc(O)c(C(c2ccccc2)C2CC2)c(=O)o1 (stereo not shown) [Example 71, 3-(Cyclopropyl-phenyl-methyl)-6-(1-ethyl-3-thiophen-3-yl-propyl)-4-hydroxy-pyran-2-one] | 11.6% | 46.3% | 75% | 84% | 95.3% | 96.4% | 54 nM | – | – | – | – | – | – |
| CCCC(CC1CCCOC1)c1cc(O)c(C(c2ccccc2)C2CC2)c(=O)o1 (stereo not shown) [Example 72, 3-(Cyclopropyl-phenyl-methyl)-4-hydroxy-6-[1-(tetrahydro-pyran-3-ylmethyl)-butyl]-pyran-2-one] | 35% | 68.4% | 90.7% | 98.7% | 93.9% | 97.7% | 31 nM | – | – | – | – | – | – |
| CCC(CCCN1CCOCC1)c1cc(O)c(C(c2ccccc2)C2CC2)c(=O)o1 (stereo not shown) [Example 73, 3-(Cyclopropyl-phenyl-methyl)-6-(1-ethyl-4-morpholin-4-yl-butyl)-4-hydroxy-pyran-2-one] | < 10% | < 10% | < 10% | < 10% | 28.9% | 61.4% | – | – | – | – | – | – | – |
